Literature values in PubChem BioAssay AID1259409 (Chemical Carcinogenesis Research Information System (CCRIS), 2018).

Tested on: rodent chemically induced tumor inhibition, incidence and multiplicity
Assay: CCRIS tumor inhibitor studies

## O=c1oc2c(O)c(O)cc3c(=O)oc4c(O)c(O)cc1c4c23
Carcinogen: BENZO[A]PYRENE, 50-32-8, Dose [Inhibitor]: 0, 2500 NMOL IN 200 µL ACETONE:METHANOL (45:55) ONCE APPLIED 5 MIN PRIOR TO CARCINOGEN DOSE (STUDY DURATION: 21 WK), Route [Inhibitor]: DERMAL, Species: MOUSE, Strain/Sex: CD-1/FEMALE, Target Tissue: Type of Lesion: SKIN: TUMOR, Dose [Carcinogen]: 50 NMOL IN ACETONE:DMSO (90:10) ONCE, Promoter: 12-O-TETRADECANOYLPHORBOL-13-ACETATE, 16561-29-8
  tumour outcome (control, treated, inhibition, significance): 55%, 33%, 40%, not significant
Carcinogen: BENZO[A]PYRENE, 50-32-8, Dose [Inhibitor]: 100 MG/KG ADMINISTERED 1 HR BEFORE AND 6, 24, AND 48 HR AFTER BENZO[A]PYRENE TREATMENT (STUDY DURATION: 6 MO), Route [Inhibitor]: INTRAPERITONEAL, Species: MOUSE, Strain/Sex: STRAIN-A/MALE, Target Tissue: Type of Lesion: LUNG: ADENOMA, Dose [Carcinogen]: 100 MG/KG ONCE, Promoter: NONE USED
  tumour outcome (control, treated, inhibition, significance): 18/18 (100%), 4/6 (67%), 33%, not significant
Carcinogen: BENZO[A]PYRENE, 50-32-8, Dose [Inhibitor]: 100 MG/KG ADMINISTERED 1 HR BEFORE AND 6, 24, AND 48 HR AFTER CARCINOGEN TREATMENT FOLLOWED BY 6 MO OBSERVATION PERIOD (, Route [Inhibitor]: INTRAPERITONEAL, Species: MOUSE, Strain/Sex: STRAIN-A/MALE, Target Tissue: Type of Lesion: LUNG: ADENOMA, Dose [Carcinogen]: 100 MG/KG ONCE, Promoter: NONE USED
  tumour outcome (control, treated, inhibition, significance): 18/18 (100%), 4/6 (67%), 33%, not significant
Carcinogen: BENZO[A]PYRENE, 50-32-8, Dose [Inhibitor]: 100 MG/KG STARTING 5 D BEFORE AND CONTINUING THROUGH 10 D AFTER CARCINOGEN TREATMENT (STUDY DURATION: 6 MO), Route [Inhibitor]: ORAL, Species: MOUSE, Strain/Sex: STRAIN-A/MALE, Target Tissue: Type of Lesion: LUNG: ADENOMA, Dose [Carcinogen]: 100 MG/KG ONCE, Promoter: NONE USED
  tumour outcome (control, treated, inhibition, significance): 18/18 (100%), 19/19 (100%), 0%, not significant
Carcinogen: BENZO[A]PYRENE, 50-32-8, Dose [Inhibitor]: 100 MG/KG/D IN DIET STARTING 5 D BEFORE AND CONTINUING TO 10 D AFTER CARCINOGEN TREATMENT FOLLOWED BY 6 MO OBSERVATION P, Route [Inhibitor]: ORAL, Species: MOUSE, Strain/Sex: STRAIN-A/MALE, Target Tissue: Type of Lesion: LUNG: ADENOMA, Dose [Carcinogen]: 100 MG/KG ONCE, Promoter: NONE USED
  tumour outcome (control, treated, inhibition, significance): 18/18 (100%), 19/19 (100%), 0%, not significant
Carcinogen: DIBENZO[A,H]PYRENE, 189-64-0, Dose [Inhibitor]: 0, 300 NMOL (TOTAL DOSE) APPLIED 10 MIN PRIOR TO CARCINOGEN DOSE INJECTED AS 1/7, 2/7, AND 4/7 OF THE TOTAL ON DAYS 1, 8, Route [Inhibitor]: INTRAPERITONEAL, Species: MOUSE, Strain/Sex: ICR/MALE,FEMALE, Target Tissue: Type of Lesion: LUNG: TUMOR, Dose [Carcinogen]: 50 NMOL (TOTAL DOSE) INJECTED IN DOSES OF 1/7, 2/7, AND 4/7 ON DAYS 1, 8, AND 15 OF LIFE, RESPECTIVELY, Promoter: NONE USED
  tumour outcome (control, treated, inhibition, significance): 95%, 100%, -5%, not significant
Carcinogen: DIETHYLNITROSAMINE, 55-18-5, Dose [Inhibitor]: 0, 900 MG/KG BW BY INTRAPERITONEAL INJECTION ON DAYS 13, 14 AND 15 OF AGE THEN 6 G/KG DIET FROM 21 TO 161 DAYS OF AGE (S, Route [Inhibitor]: INTRAPERITONEAL, ORAL, Species: MOUSE, Strain/Sex: C3H/MALE, Target Tissue: Type of Lesion: LIVER: ADENOMA, Dose [Carcinogen]: 4 MG/KG IN TRICAPRYLIN ONCE ON DAY 15 OF AGE, Promoter: NONE USED
  tumour outcome (control, treated, inhibition, significance): 100%, 100%, 0%, not significant
Carcinogen: DIETHYLNITROSAMINE, 55-18-5, N-METHYLNITROSOUREA, 684-93-5, 1,2-DIMETHYLHYDRAZINE, 540-73-8, N-BUTYL-N-(4-HYDROXYB, Carcinogen: DIETHYLNITROSAMINE, 55-18-5, N-METHYLNITROSOUREA, 684-93-5, 1,2-DIMETHYLHYDRAZINE, 540-73-8, N-BUTYL-N-(4-HYDROXYB, Dose [Inhibitor]: 0, 1% IN DIET FOR 4 WK BEGINNING 1 DAY PRIOR TO CARCINOGEN TREATMENT (STUDY DURATION: 36 WK), Route [Inhibitor]: ORAL, Species: RAT, Strain/Sex: F344/MALE, Target Tissue: Type of Lesion: KIDNEY: ADENOMA, Dose [Carcinogen]: 100 MG/KG DEN ONCE, 20 MG/KG MNU 4 TIMES, 40 MG/KG DMH 4 TIMES, 0.05% BBN IN DRINKING WATER FOR 2 WK, 0.1% DHPN IN D, Dose [Carcinogen]: 100 MG/KG DEN ONCE, 20 MG/KG MNU 4 TIMES, 40 MG/KG DMH 4 TIMES, 0.05% BBN IN DRINKING WATER FOR 2 WK, 0.1% DHPN IN D, Promoter: NONE USED
  tumour outcome (control, treated, inhibition, significance): 4/14 (29%), 1/12 (8%), 72%, not significant
Carcinogen: DIETHYLNITROSAMINE, 55-18-5, N-METHYLNITROSOUREA, 684-93-5, 1,2-DIMETHYLHYDRAZINE, 540-73-8, N-BUTYL-N-(4-HYDROXYB, Carcinogen: DIETHYLNITROSAMINE, 55-18-5, N-METHYLNITROSOUREA, 684-93-5, 1,2-DIMETHYLHYDRAZINE, 540-73-8, N-BUTYL-N-(4-HYDROXYB, Dose [Inhibitor]: 0, 1% IN DIET FOR 4 WK BEGINNING 1 DAY PRIOR TO CARCINOGEN TREATMENT (STUDY DURATION: 36 WK), Route [Inhibitor]: ORAL, Species: RAT, Strain/Sex: F344/MALE, Target Tissue: Type of Lesion: KIDNEY: NEPHROBLASTOMA, Dose [Carcinogen]: 100 MG/KG DEN ONCE, 20 MG/KG MNU 4 TIMES, 40 MG/KG DMH 4 TIMES, 0.05% BBN IN DRINKING WATER FOR 2 WK, 0.1% DHPN IN D, Dose [Carcinogen]: 100 MG/KG DEN ONCE, 20 MG/KG MNU 4 TIMES, 40 MG/KG DMH 4 TIMES, 0.05% BBN IN DRINKING WATER FOR 2 WK, 0.1% DHPN IN D, Promoter: NONE USED
  tumour outcome (control, treated, inhibition, significance): 7/14 (50%), 5/12 (42%), 16%, not significant
Carcinogen: DIETHYLNITROSAMINE, 55-18-5, N-METHYLNITROSOUREA, 684-93-5, 1,2-DIMETHYLHYDRAZINE, 540-73-8, N-BUTYL-N-(4-HYDROXYB, Carcinogen: DIETHYLNITROSAMINE, 55-18-5, N-METHYLNITROSOUREA, 684-93-5, 1,2-DIMETHYLHYDRAZINE, 540-73-8, N-BUTYL-N-(4-HYDROXYB, Dose [Inhibitor]: 0, 1% IN DIET FOR 4 WK BEGINNING 1 DAY PRIOR TO CARCINOGEN TREATMENT (STUDY DURATION: 36 WK), Route [Inhibitor]: ORAL, Species: RAT, Strain/Sex: F344/MALE, Target Tissue: Type of Lesion: LARGE INTESTINE: ADENOMA, Dose [Carcinogen]: 100 MG/KG DEN ONCE, 20 MG/KG MNU 4 TIMES, 40 MG/KG DMH 4 TIMES, 0.05% BBN IN DRINKING WATER FOR 2 WK, 0.1% DHPN IN D, Dose [Carcinogen]: 100 MG/KG DEN ONCE, 20 MG/KG MNU 4 TIMES, 40 MG/KG DMH 4 TIMES, 0.05% BBN IN DRINKING WATER FOR 2 WK, 0.1% DHPN IN D, Promoter: NONE USED
  tumour outcome (control, treated, inhibition, significance): 7/14 (50%), 5/12 (42%), 16%, not significant
Carcinogen: DIETHYLNITROSAMINE, 55-18-5, N-METHYLNITROSOUREA, 684-93-5, 1,2-DIMETHYLHYDRAZINE, 540-73-8, N-BUTYL-N-(4-HYDROXYB, Carcinogen: DIETHYLNITROSAMINE, 55-18-5, N-METHYLNITROSOUREA, 684-93-5, 1,2-DIMETHYLHYDRAZINE, 540-73-8, N-BUTYL-N-(4-HYDROXYB, Dose [Inhibitor]: 0, 1% IN DIET FOR 4 WK BEGINNING 1 DAY PRIOR TO CARCINOGEN TREATMENT (STUDY DURATION: 36 WK), Route [Inhibitor]: ORAL, Species: RAT, Strain/Sex: F344/MALE, Target Tissue: Type of Lesion: LARGE INTESTINE: CARCINOMA, Dose [Carcinogen]: 100 MG/KG DEN ONCE, 20 MG/KG MNU 4 TIMES, 40 MG/KG DMH 4 TIMES, 0.05% BBN IN DRINKING WATER FOR 2 WK, 0.1% DHPN IN D, Dose [Carcinogen]: 100 MG/KG DEN ONCE, 20 MG/KG MNU 4 TIMES, 40 MG/KG DMH 4 TIMES, 0.05% BBN IN DRINKING WATER FOR 2 WK, 0.1% DHPN IN D, Promoter: NONE USED
  tumour outcome (control, treated, inhibition, significance): 3/14 (21%), 4/12 (33%), -57%, not significant
Carcinogen: DIETHYLNITROSAMINE, 55-18-5, N-METHYLNITROSOUREA, 684-93-5, 1,2-DIMETHYLHYDRAZINE, 540-73-8, N-BUTYL-N-(4-HYDROXYB, Carcinogen: DIETHYLNITROSAMINE, 55-18-5, N-METHYLNITROSOUREA, 684-93-5, 1,2-DIMETHYLHYDRAZINE, 540-73-8, N-BUTYL-N-(4-HYDROXYB, Dose [Inhibitor]: 0, 1% IN DIET FOR 4 WK BEGINNING 1 DAY PRIOR TO CARCINOGEN TREATMENT (STUDY DURATION: 36 WK), Route [Inhibitor]: ORAL, Species: RAT, Strain/Sex: F344/MALE, Target Tissue: Type of Lesion: SMALL INTESTINE: ADENOMA, Dose [Carcinogen]: 100 MG/KG DEN ONCE, 20 MG/KG MNU 4 TIMES, 40 MG/KG DMH 4 TIMES, 0.05% BBN IN DRINKING WATER FOR 2 WK, 0.1% DHPN IN D, Dose [Carcinogen]: 100 MG/KG DEN ONCE, 20 MG/KG MNU 4 TIMES, 40 MG/KG DMH 4 TIMES, 0.05% BBN IN DRINKING WATER FOR 2 WK, 0.1% DHPN IN D, Promoter: NONE USED
  tumour outcome (control, treated, inhibition, significance): 6/14 (43%), 1/12 (8%), 81%, not calculated
